# Experimental data: patent US12570662B2, “Substituted pyrrolo[1,2-b]pyridazines as bifunctional degraders of interleukin-1 receptor-associated kinases” (Nurix Therapeutics, Inc., priority 2021, dated 2026)
# Like-named read-outs stand apart in the source and are kept apart here.
# Molecular target: T1, IRAK4 (Homo sapiens, UniProt Q9NWZ3)
# T1 construct: C-terminal HiBiT-tagged Jurkat cells (polyclonal cell line or clone 8D5); endogenous in cells; host or cells: Jurkat cells (polyclonal cell line or clone 8D5), HiBiT-tagged
# T1 sequence (Q9NWZ3 1-460): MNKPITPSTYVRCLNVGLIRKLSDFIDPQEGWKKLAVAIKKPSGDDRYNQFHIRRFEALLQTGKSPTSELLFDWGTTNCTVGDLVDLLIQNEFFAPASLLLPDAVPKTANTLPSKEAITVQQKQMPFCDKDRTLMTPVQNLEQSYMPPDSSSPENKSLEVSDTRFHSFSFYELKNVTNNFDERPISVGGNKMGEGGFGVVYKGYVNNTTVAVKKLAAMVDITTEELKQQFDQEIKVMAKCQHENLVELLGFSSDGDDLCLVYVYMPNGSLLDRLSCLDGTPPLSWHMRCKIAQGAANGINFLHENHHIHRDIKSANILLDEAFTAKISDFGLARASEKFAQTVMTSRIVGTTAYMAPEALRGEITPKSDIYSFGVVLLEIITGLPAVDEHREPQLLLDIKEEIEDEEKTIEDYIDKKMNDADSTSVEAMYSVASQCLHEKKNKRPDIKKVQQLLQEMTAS
# Test: IRAK4 Degradation HiBit Assay
# Format: cell-based
# Settings: C-terminal HiBiT-tagged Jurkat cells, 4 hrs incubation; for DC50: % IRAK4 remaining, four-parameter fit (IC50 used as DC50); for Dmax: from fit of % IRAK4 remaining
# How it was run: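 Jurkat cells carrying C-terminal HiBiT-tagged IRAK4 (polyclonal or clone 8D5) exposed to compound, 10 μM–0.1 nM final over 11 points, for 4 h at 32 °C. Remaining IRAK4 measured by lytic HiBiT/LgBiT luminescence relative to DMSO. DC50 and Dmax taken from four-parameter variable-slope fits.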
DC50,Dmax (read-out: Dmax),Dmax,Structure (SMILES)
30 nM,111%,–,"N#Cc1cnn2c(-c3cc(NC4CC4)c(-c4nnc(N5CCN(CC6CCN(c7ccc([C@@H]8CCC(=O)NC8=O)cn7)CC6)CC5)s4)cn3)ccc2c1 (single isomer, unassigned) [Example 119]"
13 nM,108%,–,"N#Cc1cnn2c(-c3cc(NC4CCOCC4)c(-c4nnc(N5CCN(C(=O)C6CCN(c7ccc(C8CCC(=O)NC8=O)cn7)CC6)CC5)s4)cn3)ccc2c1 (racemic) [Example 37, rac-7-(5-{5-[4-(1-{5-[(3R)-2,6-dioxopiperidin-3-yl]pyridin-2-yl}piperidine-4-carbonyl)piperazin-1-yl]-1,3,4-thiadiazol-2-yl}-4-[(oxan-4-yl)amino]pyridin-2-yl)pyrrolo[1,2-b]pyridazine-3-carbonitrile]"
5 nM,113%,–,"C[C@H](C#N)Nc1cc(-c2ccc3cc(C#N)cnn23)ncc1-c1nnc(N2CCN(CC3CCN(c4ccc([C@@H]5CCC(=O)NC5=O)cn4)CC3)CC2)s1 (single isomer, unassigned) [Example 129]"
53 nM,90%,–,"N#Cc1cnn2c(-c3cc(NC4CC4)c(-c4nnc(N5CCN(CC6CCN(c7ccc(C8CCC(=O)NC8=O)cc7)CC6)CC5)s4)cn3)ccc2c1 (racemic) [Example 77, rac-7-[4-(cyclopropylamino)-5-(5-{4-[(1-{4-[(3R)-2,6-dioxopiperidin-3-yl]phenyl}piperidin-4-yl)methyl]piperazin-1-yl}-1,3,4-thiadiazol-2-yl)pyridin-2-yl]pyrrolo[1,2-b]pyridazine-3-carbonitrile]"
38 nM,85%,–,"N#Cc1cnn2c(-c3cc(NC4CC4)c(-c4nnc(N5CCN(CC6CCN(c7ccc(C8CCC(=O)NC8=O)cn7)CC6)CC5)s4)cn3)ccc2c1 (racemic) [Example 67, rac-7-[4-(cyclopropylamino)-5-(5-{4-[(1-{5-[(3R)-2,6-dioxopiperidin-3-yl]pyridin-2-yl}piperidin-4-yl)methyl]piperazin-1-yl}-1,3,4-thiadiazol-2-yl)pyridin-2-yl]pyrrolo[1,2-b]pyridazine-3-carbonitrile]"
15 nM,107%,–,"N#Cc1cnn2c(-c3cc(NC4CCOCC4)c(-c4nnc(N5CCN(CC6CCN(c7ccc(N8CCC(=O)NC8=O)cn7)CC6)CC5)s4)cn3)ccc2c1 [Example 28, 7-(5-{5-[4-({1-[5-(2,4-dioxo-1,3-diazinan-1-yl)pyridin-2-yl]piperidin-4-yl}methyl)piperazin-1-yl]-1,3,4-thiadiazol-2-yl}-4-[(oxan-4-yl)amino]pyridin-2-yl)pyrrolo[1,2-b]pyridazine-3-carbonitrile]"
7 nM,–,55%,"N#Cc1cnn2c(-c3cc(NC4CCOCC4)c(-c4nnc(N5CC6CCC(C5)N6CC5[C@H]6CN(c7ccc([C@H]8CCC(=O)NC8=O)cn7)C[C@@H]56)s4)cn3)ccc2c1 (mixture of isomers) [Example 101, 7-{5-[5-(8-{[(1RS&,5SR&,6RS&)-3-{5-[(3RS)-2,6-dioxopiperidin-3-yl]pyridin-2-yl}-3-azabicyclo[3.1.0]hexan-6-yl]methyl}-3,8-diazabicyclo[3.2.1]octan-3-yl)-1,3,4-thiadiazol-2-yl]-4-[(oxan-4-yl)amino]pyridin-2-yl}pyrrolo[1,2-b]pyridazine-3-carbonitrile]"
23 nM,109%,–,"CC(C)Nc1cc(-c2ccc3cc(C#N)cnn23)ncc1-c1nnc(N2CCN(C(=O)C3CCN(c4ccc(C5CCC(=O)NC5=O)cn4)CC3)CC2)s1 (racemic) [Example 48, rac-7-(5-{5-[4-(1-{5-[(3R)-2,6-dioxopiperidin-3-yl]pyridin-2-yl}piperidine-4-carbonyl)piperazin-1-yl]-1,3,4-thiadiazol-2-yl}-4-[(propan-2-yl)amino]pyridin-2-yl)pyrrolo[1,2-b]pyridazine-3-carbonitrile]"
12 nM,101%,–,"CNc1cc(-c2ccc3cc(C#N)cnn23)ncc1-c1nnc(C23CCC(C(=O)N4CCN(c5ccc(C6CCC(=O)NC6=O)cn5)CC4)(CC2)CC3)s1 (racemic) [Example 27, rac-7-(5-{5-[4-(4-{5-[(3R)-2,6-dioxopiperidin-3-yl]pyridin-2-yl}piperazine-1-carbonyl)bicyclo[2.2.2]octan-1-yl]-1,3,4-thiadiazol-2-yl}-4-(methylamino)pyridin-2-yl)pyrrolo[1,2-b]pyridazine-3-carbonitrile]"
13 nM,113%,–,"CNc1cc(-c2ccc3cc(C#N)cnn23)ncc1-c1nnc(N2CCN(C(=O)CC[C@@H]3CCN(c4ccc([C@@H]5CCC(=O)NC5=O)cn4)C3)CC2)s1 (racemic) [Example 45, 7-{5-[5-(4-{3-[(3RS)-1-{5-[(3RS&)-2,6-dioxopiperidin-3-yl]pyridin-2-yl}pyrrolidin-3-yl]propanoyl}piperazin-1-yl)-1,3,4-thiadiazol-2-yl]-4-(methylamino)pyridin-2-yl}pyrrolo[1,2-b]pyridazine-3-carbonitrile]"
70 nM,36%,–,"CNc1cc(-c2ccc3cc(C#N)cnn23)ncc1-c1nnc([C@H]2CC[C@H](CN3CCc4cc([C@H]5CCC(=O)NC5=O)ccc4C3)CC2)s1 (racemic) [Example 6, 7-[4-(methylamino)-5-{5-[(1r,4r)-4-({6-[(3RS)-2,6-dioxopiperidin-3-yl]-1,2,3,4-tetrahydroisoquinolin-2-yl}methyl)cyclohexyl]-1,3,4-thiadiazol-2-yl}pyridin-2-yl]pyrrolo[1,2-b]pyridazine-3-carbonitrile]"
70 nM,81%,–,"N#Cc1cnn2c(-c3cc(NC4CCOCC4)c(-c4nnc(N5CCN(CCC6CCN(c7ccc(C8CCC(=O)NC8=O)cn7)CC6)CC5)s4)cn3)ccc2c1 (racemic) [Example 14, rac-7-[5-(5-{4-[2-(1-{5-[(3R)-2,6-dioxopiperidin-3-yl]pyridin-2-yl}piperidin-4-yl)ethyl]piperazin-1-yl}-1,3,4-thiadiazol-2-yl)-4-[(oxan-4-yl)amino]pyridin-2-yl]pyrrolo[1,2-b]pyridazine-3-carbonitrile]"
95 nM,112%,–,"CNc1cc(-c2ccc3cc(C#N)cnn23)ncc1-c1nnc(N2CCC(C3CCN(CC4CCN(c5ccc(C6CCC(=O)NC6=O)cn5)CC4)CC3)CC2)s1 (racemic) [Example 54, rac-7-[5-(5-{1′-[(1-{5-[(3R)-2,6-dioxopiperidin-3-yl]pyridin-2-yl}piperidin-4-yl)methyl]-[4,4′-bipiperidin]-1-yl}-1,3,4-thiadiazol-2-yl)-4-(methylamino)pyridin-2-yl]pyrrolo[1,2-b]pyridazine-3-carbonitrile]"

Structure (SMILES),DC50,Dmax (read-out: Dmax),Dmax
"N#Cc1cnn2c(-c3cc(NC4CCOCC4)c(-c4nnc(N5CC6CCC(C5)N6CC5CCN(c6ccc([C@H]7CCC(=O)NC7=O)cc6)CC5)s4)cn3)ccc2c1 (racemic) [Example 85, rac-7-[5-(5-{8-[(1-{4-[(3R)-2,6-dioxopiperidin-3-yl]phenyl}piperidin-4-yl)methyl]-3,8-diazabicyclo[3.2.1]octan-3-yl}-1,3,4-thiadiazol-2-yl)-4-[(oxan-4-yl)amino]pyridin-2-yl]pyrrolo[1,2-b]pyridazine-3-carbonitrile]",25 nM,73%,–
"N#Cc1cnn2c(-c3cc(N[C@H]4CCOC4)c(-c4nnc(N5CC6CCC(C5)N6CC5CCN(c6ccc(C7CCC(=O)NC7=O)cn6)CC5)s4)cn3)ccc2c1 (mixture of isomers) [Example 87, 7-[5-(5-{8-[(1-{5-[(3RS)-2,6-dioxopiperidin-3-yl]pyridin-2-yl}piperidin-4-yl)methyl]-3,8-diazabicyclo[3.2.1]octan-3-yl}-1,3,4-thiadiazol-2-yl)-4-{[(3S)-oxolan-3-yl]amino}pyridin-2-yl]pyrrolo[1,2-b]pyridazine-3-carbonitrile]",47 nM,61%,–
"C[C@@H](C#N)Nc1cc(-c2ccc3cc(C#N)cnn23)ncc1-c1nnc(N2CC3CCC(C2)N3CC2CCN(c3ccc([C@@H]4CCC(=O)NC4=O)cn3)CC2)s1 (single isomer, unassigned) [Example 145]",22 nM,113%,–
"N#Cc1cnn2c(-c3cc(NC4CC4)c(-c4nnc(N5CC6CCC(C5)N6CC5CCN(c6ccc([C@@H]7CCC(=O)NC7=O)cn6)CC5)s4)cn3)ccc2c1 (single isomer, unassigned) [Example 125]",30 nM,106%,–
"N#Cc1cnn2c(-c3cc(N[C@@H]4CCOC4)c(-c4nnc(N5CC6CCC(C5)N6CC5CCN(c6ccc(C7CCC(=O)NC7=O)cc6)CC5)s4)cn3)ccc2c1 (mixture of isomers) [Example 98, 7-[5-(5-{8-[(1-{4-[(3RS)-2,6-dioxopiperidin-3-yl]phenyl}piperidin-4-yl)methyl]-3,8-diazabicyclo[3.2.1]octan-3-yl}-1,3,4-thiadiazol-2-yl)-4-{[(3R)-oxolan-3-yl]amino}pyridin-2-yl]pyrrolo[1,2-b]pyridazine-3-carbonitrile]",16 nM,105%,–
"N#Cc1cnn2c(-c3cc(NC4(C#N)CC4)c(-c4nnc(N5CC6CCC(C5)N6CC5CCN(c6ccc([C@@H]7CCC(=O)NC7=O)cn6)CC5)s4)cn3)ccc2c1 (single isomer, unassigned) [Example 134]",20 nM,111%,–
